We go through one compound from US20210205398A1, “COMPOSITIONS CONTAINING PHRAGMITIS RHIZOMA EXTRACT AS ACTIVE INGREDIENT FOR PREVENTION, AMELIORATION, OR TREATMENT OF A DISORDER CAUSED BY SIDE EFFECT OF ANTICANCER AGENT” (KOREA INSTITUTE OF ORIENTAL MEDICINE, priority 2016, published 2021).

Series [1] deals with animal model having docetaxel-induced bone marrow suppression. Description: Blood cell numbers in animal model having docetaxel-induced bone marrow suppression. Type of series: in vivo, C57BL/6 mice. How it is done:
In order to determine the influence of Phragmitis Rhizoma extract on blood parameters of an animal model having bone marrow suppression, bone marrow suppression was induced by intraperitoneal injection of docetaxel to a mouse. After that, a change brought by the Phragmitis Rhizoma extract was determined.
Specifically, C57BL/6 mice were categorized into 5 groups. Group 1 is a control, i.e., a group treated with saline containing 5% ethanol and 2% polysorbate 80. Group 2 is a docetaxel treatment group, i.e., a group with intraperitoneal injection (3 times) of 30 mg/kg docetaxel. Group 3 is a docetaxel and 30 mg/kg Phragmitis Rhizoma extract administration group, i.e., a group to which compulsory administration of 30 mg/kg Phragmitis Rhizoma extract was carried out, once a day starting from 2 days before the administration of docetaxel, and the compulsory administration of 30 mg/kg Phragmitis Rhizoma extract (once a day) was continued even for the 3 days of administering docetaxel. Group 4 is a docetaxel and 100 mg/kg Phragmitis Rhizoma extract administration group, i.e., a group to which administration was carried out in the same manner as above Group 3. Lastly, Group 5 is a docetaxel and 300 mg/kg Phragmitis Rhizoma extract administration group, i.e., a group to which administration was carried out in the same manner as Group 3.
Blood was taken from the animal and a change in the number of blood cells was determined.

The subject of series [2] is animal model having bone marrow suppression induced by docetaxel. Put plainly: Alleviation of bone marrow suppression in animal model having bone marrow suppression induced by docetaxel. In kind it is in vivo, C57BL/6 mice. Here is the method: After that, a change brought by the Phragmitis Rhizoma extract was determined.
Specifically, C57BL/6 mice were categorized into 4 groups. Group 1 is a control, i.e., a group treated with saline containing 5% ethanol and 2% polysorbate 80. Group 2 is a docetaxel treatment group, i.e., a group with intraperitoneal injection (3 times) of 30 mg/kg docetaxel. Group 3 is a docetaxel and 125 mg/kg Phragmitis Rhizoma extract administration group, i.e., a group to which compulsory administration of 125 mg/kg Phragmitis Rhizoma extract was carried out, once a day starting from 2 days before the administration of docetaxel, and the compulsory administration of 125 mg/kg Phragmitis Rhizoma extract (once a day) was continued even for the 3 days of administering docetaxel. Lastly, Group 4 is a docetaxel and 250 mg/kg Phragmitis Rhizoma extract administration group, i.e., a group to which administration of 250 mg/kg Phragmitis Rhizoma extract was carried out, in the same manner as above Group 3, once a day starting from 2 days before the administration of docetaxel, and the compulsory administration of 250 mg/kg Phragmitis Rhizoma extract (once a day) was continued even for the 3 days of administering docetaxel.
After that, a change in body weight of the mouse belonging to each of the control group, docetaxel administration group, combined administration group with docetaxel and 125 mg/kg Phragmitis Rhizoma extract, and combined administration group with docetaxel and 250 mg/kg Phragmitis Rhizoma extract was measured every day. On Day 6, the mouse was sacrificed and the weight of the spleen and thymus, which play an important role in determining cell number change in bone marrow and hematopoiesis, was measured.
Organ index (mg/g)=Weight of organ (mg)/Weight of animal (g)

Series [3] deals with bone marrow cells from mouse femur. Put plainly: Hematopoietic toxicity in mouse having intraperitoneal injection of anticancer agent (in vivo), bone marrow cell count. Also on record: species or system C57BL/6 mouse. The following applies: docetaxel i.p. 50, 100, or 150 mg/kg; three days and seven days after injection; FIG. 2. How it is done:
A C57BL/6 mouse was subjected to intraperitoneal injection of docetaxel at 50, 100, or 150 mg/kg. Three days and seven days after the injection, bone marrow cells were isolated from the mouse femur and counted, and the survival rate was measured.

Setting [4] is: docetaxel 30 mg/kg i.p. 3 times, alone, mean ± SEM, ten mice.
Where [5] appears, read: docetaxel 30 mg/kg i.p. 3 times, alone, Day 6.

In series [1] (setting [4]), `CC(=O)O[C@@]12CO[C@@H]1C[C@H](O)[C@@]1(C)C(=O)[C@H](O)C3=C(C)[C@@H](OC(=O)[C@H](O)[C@@H](NC(=O)OC(C)(C)C)c4ccccc4)C[C@@](O)([C@@H](OC(=O)c4ccccc4)[C@H]21)C3(C)C` [docetaxel] had a Lymphocytes of 1.56 ± 0.22, a Neutrophils of 0.30 ± 0.01, an RBCs of 7.72 ± 0.15 and a WBCs of 2.09 ± 0.19. Besides, the “number of blood cells (in words)” value in series [1] (docetaxel administration group) was “a decrease in the number of the white blood cells, neutrophils, lymphocytes, and red blood cells”. The “number of bone marrow cells (bone marrow mononuclear cells)” value in series [2] (docetaxel 30 mg/kg i.p. 3 times, alone, vs control, FIG. 5) is recorded as “decreased significantly”. In series [2] (setting [5]), this compound registered a Spleen index of 2.366 ± 0.22 mg/g and a Thymus index of 0.911 ± 0.22 mg/g. Also, in series [2] (docetaxel 30 mg/kg i.p. 3 times, alone, FIG. 4), the body weight result is “a significant decrease in body weight was induced”. Further, in series [2] (docetaxel administration, FIG. 7), the “histopathological analysis of thymus” value is “organ shrinkage and loss of functional lymphoid organ”. In addition, the “organ index of spleen and thymus (in words)” value in series [2] (docetaxel alone) was “a decrease in organ index”. Besides, the “expression of IL-3 (mRNA, spleen tissue)” value in series [2] (docetaxel alone, FIG. 8) is reported as “largely decreased”. The “histological analysis of femur (H&E)” value in series [2] (docetaxel only, FIG. 6) is “a hypocellularity and an abnormality in cellular structure in bone marrow”. Besides, in series [3], the “number of isolated bone marrow cells” value is “a decrease in the number of the isolated bone marrow cells was observed in significant sense”.
